Experimental data from patent US12624368B2 (priority 2018, dated 2026).
Values after ≈ are worked out from the molar mass of the structure shown. “Also recorded” adds a separate entry of the source. Read-outs that look alike come from different tables or passages of the source. Where a SMILES comes first, the peptide text is derived from it.

Key:
in vitro [1] = details: dog
in vitro [2] = details: human
A(H7N7) virus [3] = details: 1 h
A(H1N1)pdm09 virus [4] = format: cell-based, influenza A virus A(H1N1)pdm09
[5] = test system: HA mediated membrane fusion; details: pH 5
[6] = test system: endosomal acidification in MDCK cells; format: cell-based, canine
A(H1N1)pdm09 virus [7] = details: 1 h
A(H7N7) virus [8] = test system: A(H7N7) virus; parameters: species or system BALB/c mice; details: mouse, in vivo
endosomal acidification = details: cited from earlier work
[9] = test system: A(H7N7) and A(H1N1)pdm09 virus; format: cell-based, influenza A virus; details: 0-8,000 nM
A(H1N1)pdm09 virus [10] = test system: A(H1N1)pdm09 virus; parameters: species or system BALB/c mice; details: in vivo
293T cells = format: cell-based, human
mouse lungs = details: in vivo
[11] = MDCK cells, P1 25.0 μg ml^−1, TAT-P1 3.1 μg ml^−1, bafilomycin A1 100.0 nM, PA1 25.0 μg ml^−1

## CC[C@H](C)[C@H](NC(=O)[C@H](CCC(N)=O)NC(=O)[C@H](CCCNC(=N)N)NC(=O)[C@H](Cc1ccccc1)NC(=O)[C@H](C)NC(=O)[C@@H](NC(=O)[C@@H]1CCCN1C(=O)[C@H](CS)NC(=O)[C@@H]1CCCN1C(=O)CNC(=O)[C@H](Cc1c[nH]c2ccccc12)NC(=O)[C@@H](N)CS)[C@@H](C)O)C(=O)NCC(=O)N[C@@H](CC(N)=O)C(=O)N[C@@H](CS)C(=O)NCC(=O)N[C@@H](CCCNC(=N)N)C(=O)N[C@@H](Cc1ccccc1)C(=O)N[C@@H](CCCNC(=N)N)C(=O)N[C@H](C(=O)N[C@@H](CCCNC(=N)N)C(=O)N[C@@H](CS)C(=O)N[C@@H](CS)C(=O)N[C@@H](CCCNC(=N)N)C(=O)N[C@H](C(=O)N[C@@H](CCCNC(=N)N)C(=O)O)[C@@H](C)CC)C(C)C [P1] (H-CWGPCPTAFRQIGNCGRFRVRCCRIR-OH)
H7N7 virus
  viral replication in 293T cells (viral titers by plaque assay): could significantly inhibit viral replication
In vitro [1]
  CC50: > 400 µg/mL
In vitro [2]
  CC50: > 400 µg/mL
A(H7N7) virus [3]
  IC50 (H7N7): 1.56 µg/mL (≈ 0.51 µM)
A(H1N1)pdm09 virus [4]
  viral RNP release into the nuclei: blocked viral RNP release into the nuclei
[5]
  HA-mediated membrane fusion: did not inhibit HA-mediated membrane fusion
[6]
  endosomal acidification: prevented endosomal acidification

## N=C(N)NCCC[C@H](NC(=O)[C@H](CCCNC(=N)N)NC(=O)[C@H](CCCNC(=N)N)NC(=O)[C@H](CCC(N)=O)NC(=O)[C@H](CCCNC(=N)N)NC(=O)[C@H](CCCNC(=N)N)NC(=O)[C@H](CCCCN)NC(=O)[C@H](CCCCN)NC(=O)[C@H](CCCNC(=N)N)NC(=O)CNC(=O)[C@@H](N)Cc1ccc(O)cc1)C(=O)O [TAT, YGRKKRRQRRR (SEQ ID NO: 7), reference compound]
In vitro [1]
  CC50: > 400 µg/mL
In vitro [2]
  CC50: > 400 µg/mL
A(H7N7) virus [3]
  IC50 (H7N7): >50.0 µg/mL
A(H1N1)pdm09 virus [7]
  IC50 (H1N1): >50.0 µg/mL

## CC[C@H](C)[C@H](NC(=O)[C@H](CCC(N)=O)NC(=O)[C@H](CCCNC(=N)N)NC(=O)[C@H](Cc1ccccc1)NC(=O)[C@H](C)NC(=O)[C@@H](NC(=O)[C@@H]1CCCN1C(=O)[C@H](CS)NC(=O)[C@@H]1CCCN1C(=O)CNC(=O)[C@H](Cc1c[nH]c2ccccc12)NC(=O)[C@H](CS)NC(=O)[C@H](CCCNC(=N)N)NC(=O)[C@H](CCCNC(=N)N)NC(=O)[C@H](CCCNC(=N)N)NC(=O)[C@H](CCC(N)=O)NC(=O)[C@H](CCCNC(=N)N)NC(=O)[C@H](CCCNC(=N)N)NC(=O)[C@H](CCCCN)NC(=O)[C@H](CCCCN)NC(=O)[C@H](CCCNC(=N)N)NC(=O)CNC(=O)[C@@H](N)Cc1ccc(O)cc1)[C@@H](C)O)C(=O)NCC(=O)N[C@@H](CC(N)=O)C(=O)N[C@@H](CS)C(=O)NCC(=O)N[C@@H](CCCNC(=N)N)C(=O)N[C@@H](Cc1ccccc1)C(=O)N[C@@H](CCCNC(=N)N)C(=O)N[C@H](C(=O)N[C@@H](CCCNC(=N)N)C(=O)N[C@@H](CS)C(=O)N[C@@H](CS)C(=O)N[C@@H](CCCNC(=N)N)C(=O)N[C@H](C(=O)N[C@@H](CCCNC(=N)N)C(=O)O)[C@@H](C)CC)C(C)C [TAT-P1] (H-YGRKKRRQRRRCWGPCPTAFRQIGNCGRFRVRCCRIR-OH)
H7N7 virus
  viral replication in 293T cells (viral titers by plaque assay): could significantly inhibit viral replication
In vitro [1]
  CC50: 300 µg/mL (≈ 65.2 µM)
In vitro [2]
  CC50: 226 µg/mL (≈ 49.1 µM)
A(H1N1)pdm09 virus [4]
  viral RNP release into the nuclei: blocked viral RNP release into the nuclei
[5]
  HA-mediated membrane fusion: did not inhibit HA-mediated membrane fusion
A(H7N7) virus [8]
  survival: 30%
[6]; [11]
  endosomal acidification: prevented endosomal acidification

## CC[C@H](C)[C@H](NC(=O)[C@H](CCCNC(=N)N)NC(=O)[C@H](CS)NC(=O)[C@H](CS)NC(=O)[C@H](CCCNC(=N)N)NC(=O)[C@@H](NC(=O)[C@H](CCCNC(=N)N)NC(=O)[C@H](Cc1ccccc1)NC(=O)[C@H](CCCNC(=N)N)NC(=O)CNC(=O)[C@H](CS)NC(=O)[C@H](CC(N)=O)NC(=O)[C@H](CCCNC(=N)N)NC(=O)[C@H](CCCCN)NC(=O)[C@H](CCCNC(=N)N)NC(=O)[C@H](Cc1ccccc1)NC(=O)[C@H](C)NC(=O)[C@H](CCCNC(=N)N)NC(=O)[C@@H]1CCCN1C(=O)[C@H](CS)NC(=O)[C@@H]1CCCN1C(=O)[C@H](CCCNC(=N)N)NC(=O)[C@H](Cc1c[nH]c2ccccc12)NC(=O)[C@H](CS)NC(=O)[C@H](CCCNC(=N)N)NC(=O)[C@H](CCCNC(=N)N)NC(=O)[C@H](CCCNC(=N)N)NC(=O)[C@H](CCC(N)=O)NC(=O)[C@H](CCCNC(=N)N)NC(=O)[C@H](CCCNC(=N)N)NC(=O)[C@H](CCCCN)NC(=O)[C@H](CCCCN)NC(=O)[C@H](CCCNC(=N)N)NC(=O)CNC(=O)[C@@H](N)Cc1ccc(O)cc1)[C@@H](C)CC)C(=O)N[C@@H](CCCNC(=N)N)C(=O)O [TAT-P2] (H-YGRKKRRQRRRCWRPCPRAFRKRNCGRFRIRCCRIR-OH; N-terminus and C-terminus assumed)
In vitro [1]
  CC50: 160 µg/mL (≈ 33.7 µM)
In vitro [2]
  CC50: 154 µg/mL (≈ 32.4 µM)

## CC[C@H](C)[C@H](NC(=O)[C@H](CCCNC(=N)N)NC(=O)[C@H](CS)NC(=O)[C@H](CCCNC(=N)N)NC(=O)[C@@H](NC(=O)[C@H](CCCNC(=N)N)NC(=O)[C@H](Cc1ccccc1)NC(=O)[C@H](CCCNC(=N)N)NC(=O)CNC(=O)[C@H](CS)NC(=O)[C@H](CC(C)C)NC(=O)[C@H](CCC(N)=O)NC(=O)[C@H](CCCNC(=N)N)NC(=O)[C@H](Cc1ccccc1)NC(=O)[C@H](CO)NC(=O)[C@@H]1CCCN1C(=O)[C@H](CS)NC(=O)[C@@H]1CCCN1C(=O)[C@H](CCCNC(=N)N)NC(=O)[C@H](Cc1c[nH]c2ccccc12)NC(=O)[C@H](CS)NC(=O)[C@H](CCCNC(=N)N)NC(=O)[C@H](CCCNC(=N)N)NC(=O)[C@H](CCCNC(=N)N)NC(=O)[C@H](CCC(N)=O)NC(=O)[C@H](CCCNC(=N)N)NC(=O)[C@H](CCCNC(=N)N)NC(=O)[C@H](CCCCN)NC(=O)[C@H](CCCCN)NC(=O)[C@H](CCCNC(=N)N)NC(=O)CNC(=O)[C@@H](N)Cc1ccc(O)cc1)[C@@H](C)CC)C(=O)N[C@@H](CCCNC(=N)N)C(=O)O [TAT-P3] (H-YGRKKRRQRRRCWRPCPSFRQLCGRFRIRCRIR-OH; N-terminus and C-terminus assumed)
In vitro [1]
  CC50: 207 µg/mL (≈ 47.6 µM)
In vitro [2]
  CC50: 205 µg/mL (≈ 47.1 µM)

## CCN(CC)CCCC(C)Nc1ccnc2cc(Cl)ccc12 (stereo not drawn) [chloroquine]
Endosomal acidification
  effective concentrations for inhibiting endosomal acidification: ~100 µM

## CC(=O)N[C@H]1[C@H]([C@H](O)[C@H](O)CO)OC(C(=O)O)=C[C@@H]1N=C(N)N [zanamivir]
[9]
  susceptibility of A(H7N7) virus to zanamivir compared with A(H1N1)pdm09 virus: reduced susceptibility; also recorded: reduced sensitivity of A(H7N7) virus to zanamivir
A(H7N7) virus [8]
  body weight loss: significantly less body weight loss
  survival: 40%
A(H1N1)pdm09 virus [10]
  viral titers in mouse lungs: significantly reduced
A(H1N1)pdm09 virus [10]; mouse
  IL-6 expression in mice: significantly reduced
  body weight loss: significantly reduced
  survival: 90%

## Bafilomycin A1 [reference compound]
293T cells
  effect of added agent on transfection efficiency of TAT-P1/pLuc: increased
A(H1N1)pdm09 virus [4]
  viral RNP release into the nuclei: blocked viral RNP release into the nuclei
[6]; [11]
  endosomal acidification: prevented endosomal acidification

## NGAICWGPCPTAFRQIG NCGHFKVRCCKIRDED (SEQ ID NO: 9) [PA1, reference compound]
293T cells
  effect of added agent on transfection efficiency of TAT-P1/pLuc: did not improve the transfection efficiency
Mouse lungs
  effect of added peptide on transfection efficiency of TAT-P1/pLuc in mouse lungs: did not improve the transfection efficiency
[6]
  endosomal acidification: did not prevent endosomal acidification
